Test results from ChEMBL document CHEMBL4138122, “Azaphenothiazines - promising phenothiazine derivatives. An insight into nomenclature, synthesis, structure elucidation and biological properties” (Eur J Med Chem, 2017).
Converted amounts (≈) assume the structure as drawn.

How the values were obtained:
[1] = molecular target: Cholinesterase (Equus caballus) (UniProt P81908); test: Inhibition of horse serum BChE at 10 uM
Cholinesterase = Cholinesterase (Equus caballus, UniProt P81908); test: Inhibition of horse serum BChE
Chain of Cholinesterase (P81908 whole entry): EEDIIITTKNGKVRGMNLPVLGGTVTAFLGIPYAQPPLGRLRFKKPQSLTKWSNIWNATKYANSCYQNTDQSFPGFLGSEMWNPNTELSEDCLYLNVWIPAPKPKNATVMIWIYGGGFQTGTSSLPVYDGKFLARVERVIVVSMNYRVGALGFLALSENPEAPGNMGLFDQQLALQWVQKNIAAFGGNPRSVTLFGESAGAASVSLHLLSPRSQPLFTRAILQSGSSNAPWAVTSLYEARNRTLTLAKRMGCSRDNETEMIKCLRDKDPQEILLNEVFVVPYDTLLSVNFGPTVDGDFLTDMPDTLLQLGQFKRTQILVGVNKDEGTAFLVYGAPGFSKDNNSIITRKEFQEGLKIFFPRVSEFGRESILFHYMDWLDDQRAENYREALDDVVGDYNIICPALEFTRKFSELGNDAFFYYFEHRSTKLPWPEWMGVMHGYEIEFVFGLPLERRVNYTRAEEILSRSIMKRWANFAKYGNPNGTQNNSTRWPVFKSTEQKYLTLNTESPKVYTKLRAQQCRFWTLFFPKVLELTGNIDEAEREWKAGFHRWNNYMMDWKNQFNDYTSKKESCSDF

[2] = Inhibition of LTB4 formation in rat polymorphonuclear leukocytes preincubated for 2 mins followed by A-23187 addition after 4 mins; assay type: functional, cell-based
MCF7 = test: Cytotoxicity against human MCF7 cells incubated for 72 hrs by WST1 dye based assay; assay type: functional, cell-based; conditions: MCF7, 72 h
HFF-1 = test: Cytotoxicity against human HFF1 cells incubated for 72 hrs by WST1 dye based assay; assay type: cell-based; conditions: HFF-1, 72 h
Escherichia coli = test: Antibacterial activity against Escherichia coli; assay type: functional; conditions: Escherichia coli
Bacillus cereus = test: Antibacterial activity against Bacillus cereus; assay type: functional, organism-based
Candida albicans = test: microbe, parasite or virus in culture
Description: Antimicrobial activity against Candida albicans

Rattus norvegicus = test: Analgesic activity in Sprague-Dawley rat assessed as reduction in phenylbenzoquinone-induced number of writhes at 20 mg/kg, sc incubated for 60 mins; assay type: functional; parameters: scale not given: the % may be the effect or the level left
[3] = Inhibition of soybean 15-lipoxygenase; parameters: species or system Glycine max
PBMC [4] = test: Inhibition of PHA-induced cell proliferation of human PBMC at 50 ug/ml incubated for 4 days by MTT method; assay type: functional; conditions: 96 h
PBMC [5] = test: Cytotoxicity in human PBMCs assessed as reduction in cel viability at 50 ug/ml; assay type: cell-based
[6] = molecular target: Intercellular adhesion molecule 1 (Homo sapiens, UniProt P05362); test: Inhibition of ICAM1 (unknown origin)
Chain of Intercellular adhesion molecule 1 (P05362 whole entry): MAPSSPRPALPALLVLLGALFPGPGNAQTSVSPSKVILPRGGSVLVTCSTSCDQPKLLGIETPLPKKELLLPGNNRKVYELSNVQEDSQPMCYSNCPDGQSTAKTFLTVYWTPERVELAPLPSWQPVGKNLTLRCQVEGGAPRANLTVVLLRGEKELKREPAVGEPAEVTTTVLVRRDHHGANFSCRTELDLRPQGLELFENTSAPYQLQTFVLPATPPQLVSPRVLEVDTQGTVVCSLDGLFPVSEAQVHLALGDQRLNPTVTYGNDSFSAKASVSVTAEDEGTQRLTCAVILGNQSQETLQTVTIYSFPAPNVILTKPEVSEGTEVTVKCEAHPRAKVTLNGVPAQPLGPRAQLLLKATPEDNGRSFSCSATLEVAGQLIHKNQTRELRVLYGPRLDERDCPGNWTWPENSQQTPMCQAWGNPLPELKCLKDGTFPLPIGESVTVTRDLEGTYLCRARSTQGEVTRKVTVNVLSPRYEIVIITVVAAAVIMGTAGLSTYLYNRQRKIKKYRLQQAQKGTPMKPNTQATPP

Mus musculus [7] = test: Anti-inflammatory activity in mouse IL-1-induced paw inflammation model assessed as inhibition of neutrophil infiltration at 10 mg/kg, po; assay type: functional; conditions: for inhibition in vivo at 10 mg/kg: Mus musculus, po
Mus musculus [8] = test: Neuropharmacological activity in iv dosed Charles River Swiss mouse assessed as minimum dose at which reactive signs were observed in half of mouse tested; assay type: functional
Mus musculus [9] = test: Analgesic activity in mouse assessed as reduction in phenylquinone-induced number of writhes at 20 mg/kg, ip; assay type: functional; parameters: scale not given: the % may be the effect or the level left
PBMC [10] = test: Inhibition of LPS-induced TNFalpha profduction in human PBMC at 5 ug/ml; assay type: functional
Mus musculus [11] = test: Anti-inflammatory activity in IL1-induced paw inflammation Balb/c mouse model assessed as inhibition of neutrophil migration at 10 mg/kg, po, pretreated for 30 mins followed by IL1 challenge measured after 2 hrs by spectrophotometric method; assay type: functional
Lipoxygenase = Lipoxygenase (Glycine max, UniProt Q39829); test: Inhibition of soybean lipoxygenase using linoleic acid as substrate preincubated for 5 mins followed by substrate addition measuredf after 7 mins by solution A/B solution based assay
Enterococcus faecalis = test: Antibacterial activity against Enterococcus faecalis; assay type: functional
Staphylococcus aureus = test: Antibacterial activity against Staphylococcus aureus; assay type: functional; conditions: Staphylococcus aureus; read-out: MIC
[12] = Inhibition of lipoxygenase in rat peritoneal cavity resident cells
Bacillus subtilis = test: Antibacterial activity against Bacillus subtilis; assay type: functional; conditions: Bacillus subtilis
UO-31 = test: Growth inhibition of human UO31 cells at 10 uM; assay type: functional; conditions: read-out: GI
[13] = Displacement of [3H]-diazepam from benzodiazepine receptor in rat brain membranes after 30 mins; assay type: cell membranes, Membrane

Chain of Cholinesterase (Equus caballus) (P81908 whole entry): as the sequence (P81908 whole entry) above

O=C(NCCCl)NCCCN1c2nc3ccccc3cc2Sc2cc3ccccc3nc21
inhibition [1]: 83.2% | IC50 (Cholinesterase): 2900 nM

COc1ccc2c(c1)Sc1nccnc1N2
IC50 [2]: 0.05 to 1 µg/mL (≈ 0.216 to 4.32 µM)

O=[N+]([O-])c1cnccc1N1c2cccnc2Sc2cccnc21
IC50 (MCF7): 4.6 µg/mL (≈ 14.2 µM) | IC50 (HFF-1): ≥ 50 µg/mL

COc1ccc2c(n1)Sc1c3c(c4ccccc4c1=N2)=Nc1cc([N+](=O)[O-])ccc1O3
MIC (Escherichia coli): 87.1 to 97.1 µg/mL (≈ 203 to 227 µM) | MIC (Bacillus cereus): 87.4 µg/mL (≈ 204 µM)

COc1ccc2c(n1)Sc1c3c(c4ccccc4c1=N2)=Nc1ccc(OC)nc1S3
MIC (Candida albicans): 72.4 µg/mL (≈ 168 µM) | MIC (Escherichia coli): 144 µg/mL (≈ 336 µM)

C#CCN1c2cccnc2Sc2cccnc21
IC50 (MCF7): 3.9 µg/mL (≈ 16.3 µM)

CN(C)CCCN1c2ccccc2Sc2cnccc21.O=C(O)C(=O)O
Activity (Rattus norvegicus): 59 - 86%

c1ccc2c(c1)Nc1nnc(N3CCCCC3)cc1S2
IC50 [3]: > 287000 nM

COc1ccc2c(n1)Sc1c3c(c4ccccc4c1=N2)=Nc1c(N)ncnc1O3
MIC (Escherichia coli): 87.1 to 97.1 µg/mL (≈ 218 to 242 µM) | MIC (Bacillus cereus): 77.1 µg/mL (≈ 193 µM)

c1cnc2c(c1)Sc1ccncc1N2CCN1CCOCC1
inhibition at 50 µg/mL (PBMC [4]): 60% | Activity (PBMC [5]): <= 22%

O=C(O)CC1C2CCCC1CN(Cc1ccc3c(c1)Nc1nccnc1S3)C2 (stereo in doubt; 64d)
IC50 [6]: 2300 nM | inhibition (INH) (Mus musculus [7]): 80.6%

O=C(O)C(=O)O.c1ccc2c(c1)Sc1cnccc1N2CCCN1CCCCC1
Activity (Rattus norvegicus): 59 - 86%

CC(C)N(CCSC(=O)N1c2ccccc2Sc2cc(Cl)cnc21)C(C)C
MED50 (Mus musculus [8]): 0.058 to 1.8 mg/kg

CN(C)CCSc1nnc2c3c(cnn12)Sc1ccccc1N3
Activity (Mus musculus [9]): 54 - 65%

c1ccc2c(c1)Nc1nnc(N3CCCC3)cc1S2
IC50 [3]: > 287000 nM

CN1CCN(c2cc3c(nn2)Nc2ccccc2S3)CC1
IC50 [3]: > 287000 nM

O=C(O)CC1C2CCC1CN(Cc1ccc3c(c1)Nc1nccnc1S3)C2 (stereo not drawn)
inhibition in vivo at 10 mg/kg (Mus musculus [7]): 83.2%

c1cnc2c(c1)Sc1ccncc1N2CCN1CCCC1
Activity (PBMC [5]): <= 22% | inhibition at 5 µg/mL (PBMC [10]): > 85%

c1cnc2c(c1)Sc1ccncc1N2
inhibition at 50 µg/mL (PBMC [4]): > 70% | Activity (PBMC [5]): <= 22%

CN1CCN(Cc2nnc3c4c(cnn23)Sc2ccccc2N4)CC1
Activity (Mus musculus [9]): 54 - 65%

CS(=O)(=O)NCCC1CCN(Cc2ccc3c(c2)Nc2nccnc2S3)CC1
IC50 [6]: 270 to 1400 nM | inhibition in vivo at 10 mg/kg (Mus musculus [11]): 83.4 to 89.7%

O=C(O)CC1CC2(CCN(Cc3ccc4c(c3)Nc3nccnc3S4)CC2)C1
IC50 [6]: 420 to 1000 nM | inhibition in vivo at 10 mg/kg (Mus musculus [7]): 88.8%

CSc1ccc2c(c1)N(C(=O)SCCN(C(C)C)C(C)C)c1ncccc1S2
MED50 (Mus musculus [8]): 0.058 to 1.8 mg/kg

O=S(=O)(NC1CCN(Cc2ccc3c(c2)Nc2nccnc2S3)CC1)N1CCOCC1
IC50 [6]: 270 to 1400 nM | inhibition in vivo at 10 mg/kg (Mus musculus [11]): 66.1%

COc1ccc2c(c1Cl)Sc1nccnc1N2C
IC50 [2]: 1 to 5 µg/mL (≈ 3.57 to 17.9 µM)

CN1CCN(c2ncc3c(n2)Sc2ccccc2N3)CC1
IC50 (Lipoxygenase): 87700 nM

C[n+]1cc2c(c3ccccc31)Nc1ccc(Br)cc1S2.[Cl-]
MIC (Enterococcus faecalis): 9 µg/mL | MIC (Staphylococcus aureus): 26 µg/mL

CC(CN(C)C)CN1c2cnccc2Sc2cccnc21 (stereo not drawn)
inhibition at 50 µg/mL (PBMC [4]): 60% | Activity (PBMC [5]): <= 22% | inhibition at 5 µg/mL (PBMC [10]): > 85%

CCN(CC)CCSc1nnc2c3c(cnn12)Sc1ccccc1N3
Activity (Mus musculus [9]): 54 - 65%

O=C(O)c1ccc(CC2CCN(Cc3ccc4c(c3)Nc3nccnc3S4)CC2)cc1
IC50 [6]: 420 to 1000 nM | inhibition in vivo at 10 mg/kg (Mus musculus [7]): 88%

C#CCN1c2cnccc2Sc2cccnc21
Activity (PBMC [5]): <= 22% | inhibition at 5 µg/mL (PBMC [10]): > 85%

Cc1ncc2c(n1)N=c1c(c3c(c4ccccc14)=Nc1cc([N+](=O)[O-])ccc1O3)S2
MIC (Escherichia coli): 87.1 to 97.1 µg/mL (≈ 211 to 235 µM) | MIC (Bacillus cereus): 87.1 µg/mL (≈ 211 µM)

CC(C)N(CCSC(=O)N1c2ccccc2Sc2cccnc21)C(C)C
MED50 (Mus musculus [8]): 0.058 to 1.8 mg/kg

Cc1ccc2c(c1)Sc1c[n+](C)c3ccccc3c1N2.[Cl-]
MIC (Enterococcus faecalis): 11 µg/mL

O=c1[nH]c2c(c(=O)[nH]1)Nc1ccccc1S2 [PYRIMIDOBENZOTHIAZINE]
IC50 [12]: 5300 nM

CC(=O)NCCCN1c2cnccc2Sc2cccnc21
inhibition at 50 µg/mL (PBMC [4]): 60% | Activity (PBMC [5]): <= 22%

CSc1nnc2c3c(cnn12)Sc1ccccc1N3
Activity (Mus musculus [9]): 54 - 65%

CN1CCCCC1CCN1c2ccc(Cl)cc2Sc2cc3ccccc3nc21 (stereo not drawn)
inhibition [1]: 99.9% | IC50 (Cholinesterase): 122 nM

CN1c2ccccc2Sc2nccnc21
IC50 [2]: 1 to 5 µg/mL (≈ 4.65 to 23.2 µM)

CC(C)N(CCSC(=O)N1c2cc(F)ccc2Sc2cccnc21)C(C)C
MED50 (Mus musculus [8]): 0.058 to 1.8 mg/kg

C[n+]1cc2c(c3ccccc31)Nc1ccccc1S2.[Cl-]
MIC (Enterococcus faecalis): 6 µg/mL | MIC (Escherichia coli): 7 µg/mL

CC(C)N(CCSC(=O)N1c2cc(C(F)(F)F)ccc2Sc2cccnc21)C(C)C
MED50 (Mus musculus [8]): 0.058 to 1.8 mg/kg

O=C(O)C1CC2(CCN(Cc3ccc4c(c3)Nc3nccnc3S4)CC2)C1
IC50 [6]: 420 to 1000 nM | inhibition in vivo at 10 mg/kg (Mus musculus [7]): 82.8%

O=C(NCCCl)NCCCN1c2ccc(Cl)cc2Sc2cc3ccccc3nc21
inhibition [1]: 80%

C=CCN1c2cnccc2Sc2cccnc21
Activity (PBMC [5]): <= 22% | inhibition at 5 µg/mL (PBMC [10]): > 85%

CS(=O)(=O)NCC1CCN(Cc2ccc3c(c2)Nc2nccnc2S3)CC1
IC50 [6]: 270 to 1400 nM | inhibition in vivo at 10 mg/kg (Mus musculus [11]): 77.6%

c1ccc(CN2c3cnccc3Sc3cccnc32)cc1
Activity (PBMC [5]): <= 22% | inhibition at 5 µg/mL (PBMC [10]): > 85%

CN1CCC2=C(C1)Sc1ccccc1N2CCCN1CCOCC1
Activity (Rattus norvegicus): 93%

O=[N+]([O-])c1ccc2c(c1)N=c1c(c3c(c4ccccc14)=Nc1ccccc1S3)O2
MIC (Bacillus subtilis): 45.7 µg/mL (≈ 115 µM) | MIC (Candida albicans): 100 µg/mL (≈ 252 µM)

CSc1ccc2c(c1)Sc1cc3ccccc3nc1N2CCC1CCCCN1C (stereo not drawn)
inhibition [1]: 99.9% | IC50 (Cholinesterase): 24.4 nM

O=C(O)C(=O)O.c1ccc2c(c1)Sc1cnccc1N2CCCN1CCCC1
Activity (Rattus norvegicus): 59 - 86%

CCN1CCN(c2nc(C)c3c(n2)Sc2ccccc2N3)CC1
IC50 (Lipoxygenase): 40700 nM

c1ccc2c(c1)Nc1nnc(N3CCOCC3)cc1S2
IC50 [3]: > 287000 nM

CN(C)CCCN1c2cnccc2Sc2cccnc21
inhibition at 50 µg/mL (PBMC [4]): > 70% | Activity (PBMC [5]): <= 22% | inhibition at 5 µg/mL (PBMC [10]): > 85%

O=[N+]([O-])c1ccc(N2c3nc4ccccc4cc3Sc3cc4ccccc4nc32)cc1
inhibition of growth at 10 µM (UO-31): 57 to 73%

Cc1nc(N2CCN(C)CC2)nc2c1Nc1ccccc1S2
IC50 (Lipoxygenase): 21200 nM

C[n+]1cc2c(c3ccccc31)Nc1ccc(Cl)cc1S2.[Cl-]
MIC (Enterococcus faecalis): 4 µg/mL | MIC (Escherichia coli): 6 µg/mL

CN(C)CCN1c2ccccc2Sc2cnccc21.O=C(O)C(=O)O
Activity (Rattus norvegicus): 59 - 86%

O=C(O)C(=O)O.c1ccc2c(c1)Sc1cnccc1N2CCCN1CCOCC1
Activity (Rattus norvegicus): 59 - 86%

Cn1c(=O)[nH]c2c(c1=O)Nc1ccccc1S2
IC50 [12]: 1900 nM

c1ccc(CN2c3nc4ccccc4cc3Sc3cc4ccccc4nc32)cc1
inhibition of growth at 10 µM (UO-31): 57 to 73%

CCN(CC)CCN1c2cnccc2Sc2cccnc21
inhibition at 50 µg/mL (PBMC [4]): 60% | Activity (PBMC [5]): <= 22%

CS(=O)(=O)N1CCN(Cc2ccc3c(c2)Nc2nccnc2S3)CC1
IC50 [6]: 270 to 1400 nM | inhibition in vivo at 10 mg/kg (Mus musculus [11]): 53.4%

Nc1nc(O)c2c(n1)N=c1c(c3c(c4ccccc14)=Nc1ccccc1S3)S2
MIC (Candida albicans): 91.2 µg/mL (≈ 227 µM) | MIC (Staphylococcus aureus): 79.4 µg/mL (≈ 198 µM)

CN1CCCCC1CCN1c2nc3ccccc3cc2Sc2cc3ccccc3nc21 (stereo not drawn)
inhibition [1]: 99.8% | IC50 (Cholinesterase): 11.8 nM

CS(=O)(=O)NC1CCN(Cc2ccc3c(c2)Nc2nccnc2S3)CC1
IC50 [6]: 270 to 1400 nM | inhibition in vivo at 10 mg/kg (Mus musculus [11]): 83.4 to 89.7%

CN1CCN(CC#CCN2c3cccnc3Sc3cccnc32)CC1
IC50 (MCF7): 7.5 µg/mL (≈ 21.3 µM)

N#Cc1c(O)ncc2c1Nc1ccc(Cl)cc1S2
IC50 [13]: 310 to 910 nM
